{"source": "patent US10316017B2", "about": "“COT modulators and methods of use thereof” (Gilead Sciences, Inc., priority 2015, dated 2019)", "key": {"[1]": {"system": "TNFα production in LPS-stimulated human monocytes", "assay": "Cot Monocyte TNFα Cell Based Assay", "conditions": "Homo sapiens, Monocyte, TNFα in LPS-stimulated human monocytes; read-out: EC50 TNF", "summary_of_the_method": "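5,000 cells/well; cmpd 1 h, 37 °C, 0.5% DMSO final; LPS 50 pg/ml, 4 h, 37 °C; media TNFα by HTRF sandwich (cryptate/XL665), RT overnight; % control vs unstimulated/stimulated wells.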"}, "[2]": {"target": "T1, human Cot catalytic domain (30-397 amino acids) (Homo sapiens, UniProt P41279)", "T1 construct": "Purified recombinant human Cot catalytic domain (30-397 amino acids) was purchased from Cama Biosciences; purchased Cama Biosciences (so in the source)", "T1 sequence (P41279 30-397)": "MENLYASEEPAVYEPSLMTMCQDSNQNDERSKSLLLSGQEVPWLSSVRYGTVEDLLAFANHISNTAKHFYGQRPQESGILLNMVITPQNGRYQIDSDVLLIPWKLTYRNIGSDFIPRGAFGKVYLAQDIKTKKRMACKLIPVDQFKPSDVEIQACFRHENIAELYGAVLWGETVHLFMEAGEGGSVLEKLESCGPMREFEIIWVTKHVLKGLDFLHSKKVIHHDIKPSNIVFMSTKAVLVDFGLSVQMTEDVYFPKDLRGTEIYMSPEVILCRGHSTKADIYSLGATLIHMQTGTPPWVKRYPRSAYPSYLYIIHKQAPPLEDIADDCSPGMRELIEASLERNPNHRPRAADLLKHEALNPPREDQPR", "assay": "High Throughput Cot Biochemical Assay (KinEASE TR-FRET)", "conditions": "Cot KinEASE TR-FRET (HTRF) biochemical assay, 400 μM ATP; read-out: IC50 HTRF", "summary_of_the_method": "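First, purified human Cot (aa 30-397) at 5 nM phosphorylates an XL665-labeled STK3 peptide (1 μM) at 400 μM ATP, pH 7.0, 0.1% DMSO. Then a europium-conjugated phospho-specific antibody binds the product, giving the TR-FRET signal.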"}}, "data": [{"smiles": "[2H][C@](Nc1cc(Cl)c2ncc(C#N)c(NCC(C)(C)C)c2c1)(c1cn(C(C)(C)C)nn1)c1ccccc1Cl", "note": "[Example 109, 6-(((1-(tert-butyl)-1H-1,2,3-triazol-4-yl) (2-chlorophenyl)methyl-d)amino)-8-chloro-4-(neopentylamino) quinoline-3-carbonitrile]", "values": [{"measurement": "EC50", "setting": "[1]", "value": 210, "unit": "nM"}, {"measurement": "IC50", "setting": "[2]", "value": 17, "unit": "nM"}]}, {"smiles": "[2H][C@](Nc1cc(Cl)c2ncc(C#N)c(Nc3cccc(Cl)c3OC3CC3)c2c1)(c1ccc(F)cc1)c1cn(C2CC2)nn1", "note": "[Example 110, (S)-8-chloro-4-((3-chloro-2-cyclopropoxyphenyl)amino)-6-(((1-cyclopropyl-1H-1,2,3-triazol-4-yl)(4-fluorophenyl)methyl-d)amino) quinoline-3-carbonitrile]", "values": [{"measurement": "EC50", "setting": "[1]", "value": 133, "unit": "nM"}, {"measurement": "IC50", "setting": "[2]", "value": 16, "unit": "nM"}]}, {"smiles": "[2H][C@](Nc1cc(Cl)c2ncc(C#N)c(N[C@@H](c3ccccc3)[C@@H]3C[C@H]3C#N)c2c1)(c1ccc(F)cc1)c1cn(C2CC2)nn1", "note": "[Example 111, 8-chloro-4-(((R)-((1R,2R)-2-cyanocyclopropyl) (phenyl)methyl)amino)-6-(((S)-(1-cyclopropyl-1H-1,2,3-triazol-4-yl)(4-fluorophenyl)methyl-d)amino)quinoline-3-carbonitrile]", "values": [{"measurement": "EC50", "setting": "[1]", "value": 960, "unit": "nM"}, {"measurement": "IC50", "setting": "[2]", "value": 72, "unit": "nM"}]}, {"smiles": "CC(C)(C)CNc1c(C#N)cnc2c(Cl)cc(N[C@H](c3cn(C4CC4)nn3)c3ccccc3CO)cc12", "note": "[Example 114, (S)-8-chloro-6-(((1-cyclopropyl-1H-1,2,3-triazol-4-yl)(2-(hydroxymethyl)phenyl)methyl)amino)-4-(neopentylamino) quinoline-3-carbonitrile]", "values": [{"measurement": "EC50", "setting": "[1]", "value": 190, "unit": "nM"}, {"measurement": "IC50", "setting": "[2]", "value": 6, "unit": "nM"}]}, {"smiles": "CC[C@@H](Nc1c(C#N)cnc2c(Cl)cc(N[C@@H](c3ccc(F)cc3)c3cn(CC(=O)O)nn3)cc12)c1ccccc1", "note": "[Example 115, 2-(4-((S)-((8-chloro-3-cyano-4-(((R)-1-phenylpropyl)amino)quinolin-6-yl)amino)(4-fluorophenyl)methyl)-1H-1,2,3-triazol-1-yl) acetic acid]", "values": [{"measurement": "EC50", "setting": "[1]", "value": "> 10000", "unit": "nM"}, {"measurement": "IC50", "setting": "[2]", "value": 3, "unit": "nM"}]}, {"smiles": "[2H][C@](Nc1cc(Cl)c2ncc(C#N)c(Nc3ccc(F)c(Cl)c3)c2c1)(c1ccc(F)cc1)c1cn(CC(=O)O)nn1", "note": "[Example 116, (S)-2-(4-(((8-chloro-4-((3-chloro-4-fluorophenyl)amino)-3-cyanoquinolin-6-yl)amino)(4-fluorophenyl)methyl-d)-1H-1,2,3-triazol-1-yl)acetic acid]", "values": [{"measurement": "EC50", "setting": "[1]", "value": "> 10000", "unit": "nM"}, {"measurement": "IC50", "setting": "[2]", "value": 14, "unit": "nM"}]}, {"smiles": "[2H][C@](Nc1cc(Cl)c2ncc(C#N)c(NCC(C)(C)C)c2c1)(c1cn(CC#N)nn1)c1ccccc1Cl", "note": "[Example 119, 8-chloro-6-(((2-chlorophenyl)(1-(cyanomethyl)-1H-1,2,3-triazol-4-yl)methyl-d)amino)-4-(neopentylamino) quinoline-3-carbonitrile]", "values": [{"measurement": "EC50", "setting": "[1]", "value": 166, "unit": "nM"}, {"measurement": "IC50", "setting": "[2]", "value": 26, "unit": "nM"}]}, {"smiles": "CC(C)(C)CNc1c(C#N)cnc2c(Cl)cc(N[C@H](c3cn(C4CC4)nn3)c3ccccc3OC(F)(F)F)cc12", "note": "[Example 122, (S)-8-chloro-6-(((1-cyclopropyl-1H-1,2,3-triazol-4-yl)(2-(trifluoromethoxy)phenyl)methyl)amino)-4-(neopentylamino) quinoline-3-carbonitrile]", "values": [{"measurement": "EC50", "setting": "[1]", "value": 201, "unit": "nM"}, {"measurement": "IC50", "setting": "[2]", "value": 19, "unit": "nM"}]}, {"smiles": "[2H][C@@](Nc1cc(Cl)c2ncc(C#N)c(N[C@@H]3[C@@H]4CCC[C@@H]43)c2c1)(c1cn(C2CC2)nn1)c1ccccc1Cl", "note": "[Example 124, 4-(((1R,5S,6s)-bicyclo [3.1.0]hexan-6-yl)amino)-8-chloro-6-(((2-chlorophenyl)(1-cyclopropyl-1H-1,2,3-triazol-4-yl)methyl-d)amino) quinoline-3-carbonitrile]", "values": [{"measurement": "EC50", "setting": "[1]", "value": 218, "unit": "nM"}, {"measurement": "IC50", "setting": "[2]", "value": 14, "unit": "nM"}]}, {"smiles": "[2H][C@](Nc1cc(Cl)c2ncc(C#N)c(Nc3ccccc3OC(F)(F)F)c2c1)(c1ccc(F)cc1)c1cn(C2CC2)nn1", "note": "[Example 126, (S)-8-chloro-6-(((1-cyclopropyl-1H-1,2,3-triazol-4-yl)(4-fluorophenyl)methyl-d)amino)-4-((2-(trifluoromethoxy)phenyl)amino)quinoline-3-carbonitrile]", "values": [{"measurement": "EC50", "setting": "[1]", "value": "> 10000", "unit": "nM"}, {"measurement": "IC50", "setting": "[2]", "value": 397, "unit": "nM"}]}, {"smiles": "[2H][C@@](Nc1cc(C#N)c2ncc(C#N)c(NC3CCOCC3(C)C)c2c1)(c1cn(C2CC2)nn1)c1ccccc1Cl", "note": "(stereo partly drawn) [Example 128, 6-(((S)-(2-chlorophenyl) (1-cyclopropyl-1H-1,2,3-triazol-4-yl)methyl-d)amino)-4-((3,3-dimethyltetrahydro-2H-pyran-4-yl)amino)quinoline-3,8-dicarbonitrile]", "values": [{"measurement": "EC50", "setting": "[1]", "value": 54, "unit": "nM"}, {"measurement": "IC50", "setting": "[2]", "value": 2, "unit": "nM"}]}, {"smiles": "[2H][C@@](Nc1cc(C#N)c2ncc(C#N)c(NCC(C)(C)C)c2c1)(c1cn(C2(C(F)(F)F)CC2)nn1)c1ccccc1Cl", "note": "[Example 129, (S)-6-(((2-chlorophenyl) (1-(1-(trifluoromethyl)cyclopropyl)-1H-1,2,3-triazol-4-yl)methyl-d)amino)-4-(neopentylamino) quinoline-3,8-dicarbonitrile]", "values": [{"measurement": "EC50", "setting": "[1]", "value": 344, "unit": "nM"}, {"measurement": "IC50", "setting": "[2]", "value": 20, "unit": "nM"}]}, {"smiles": "[2H][C@](Nc1cc(C#N)c2ncc(C#N)c(NCC(C)(C)C)c2c1)(c1ccc(F)cc1)c1cn(C2(C(F)(F)F)CC2)nn1", "note": "[Example 130, (S)-6-(((4-fluorophenyl) (1-(1-(trifluoromethyl)cyclopropyl)-1H-1,2,3-triazol-4-yl)methyl-d)amino)-4-(neopentylamino) quinoline-3,8-dicarbonitrile]", "values": [{"measurement": "EC50", "setting": "[1]", "value": 195, "unit": "nM"}, {"measurement": "IC50", "setting": "[2]", "value": 23, "unit": "nM"}]}, {"smiles": "[2H][C@](Nc1cc(C#N)c2ncc(C#N)c(N[C@H](CC)c3ccccc3)c2c1)(c1ccc(F)cc1)c1cn(C2(C(F)(F)F)CC2)nn1", "note": "[Example 132, 6-(((S)-(4-fluorophenyl) (1-(1-(trifluoromethyl)cyclopropyl)-1H-1,2,3-triazol-4-yl)methyl-d)amino)-4-(((R)-1-phenylpropyl)amino)quinoline-3,8-dicarbonitrile]", "values": [{"measurement": "EC50", "setting": "[1]", "value": 140, "unit": "nM"}, {"measurement": "IC50", "setting": "[2]", "value": 14, "unit": "nM"}]}, {"smiles": "[2H][C@](Nc1ccc2ncc(C#N)c(NCC(C)(C)C)c2c1)(c1ccc(F)cc1)c1cn(C2CC2)nn1", "note": "[Example 133, 6-(((1-cyclopropyl-1H-1,2,3-triazol-4-yl)(4-fluorophenyl)methyl-d)amino)-4-(neopentylamino) quinoline-3-carbonitrile]", "values": [{"measurement": "EC50", "setting": "[1]", "value": 313, "unit": "nM"}, {"measurement": "IC50", "setting": "[2]", "value": 21, "unit": "nM"}]}, {"smiles": "[2H][C@](Nc1cc(Cl)c2ncc(C#N)c(NCC(C)(C)CC#N)c2c1)(c1ccc(F)cc1)c1cn(C2CC2)nn1", "note": "[Example 134, (S)-8-chloro-4-((3-cyano-2,2-dimethylpropyl)amino)-6-(((1-cyclopropyl-1H-1,2,3-triazol-4-yl)(4-fluorophenyl)methyl-d)amino)quinoline-3-carbonitrile]", "values": [{"measurement": "EC50", "setting": "[1]", "value": 142, "unit": "nM"}, {"measurement": "IC50", "setting": "[2]", "value": 6, "unit": "nM"}]}, {"smiles": "[2H][C@](Nc1cc(Cl)c2ncc(C#N)c(NC3(C4CC4)CC3)c2c1)(c1ccc(F)cc1)c1cn(C2CC2)nn1", "note": "[Example 135, (S)-4-([1,1'-bi(cyclopropan)]-1-ylamino)-8-chloro-6-(((1-cyclopropyl-1H-1,2,3-triazol-4-yl)(4-fluorophenyl)methyl-d)amino)quinoline-3-carbonitrile]", "values": [{"measurement": "EC50", "setting": "[1]", "value": 7500, "unit": "nM"}, {"measurement": "IC50", "setting": "[2]", "value": 962, "unit": "nM"}]}, {"smiles": "[2H][C@@](Nc1cc(Cl)c2ncc(C#N)c(N[C@H](CCC#N)c3ccccc3)c2c1)(c1cn(C2CC2)nn1)c1cccc(C#N)c1C", "note": "[Example 136, 8-chloro-4-(((R)-3-cyano-1-phenylpropyl)amino)-6-(((S)-(3-cyano-2-methylphenyl)(1-cyclopropyl-1H-1,2,3-triazol-4-yl)methyl-d)amino) quinoline-3-carbonitrile]", "values": [{"measurement": "EC50", "setting": "[1]", "value": 20, "unit": "nM"}, {"measurement": "IC50", "setting": "[2]", "value": 1, "unit": "nM"}]}, {"smiles": "[2H][C@](Nc1cc(-c2cnn(C)c2)c2ncc(C#N)c(NCC(C)(C)C)c2c1)(c1ccc(F)cc1)c1cn(C2CC2)nn1", "note": "[Example 137, (S)-6-(((1-cyclopropyl-1H-1,2,3-triazol-4-yl)(4-fluorophenyl)methyl-d)amino)-8-(1-methyl-1H-pyrazol-4-yl)-4-(neopentylamino) quinoline-3-carbonitrile]", "values": [{"measurement": "EC50", "setting": "[1]", "value": 4370, "unit": "nM"}, {"measurement": "IC50", "setting": "[2]", "value": 606, "unit": "nM"}]}, {"smiles": "[2H][C@](Nc1cc(C(=O)N(C)C)c2ncc(C#N)c(NCC(C)(C)C)c2c1)(c1ccc(F)cc1)c1cn(C2CC2)nn1", "note": "[Example 138, (S)-3-cyano-6-(((1-cyclopropyl-1H-1,2,3-triazol-4-yl) (4-fluorophenyl)methyl-d)amino)-N,N-dimethyl-4-(neopentylamino) quinoline-8-carboxamide]", "values": [{"measurement": "EC50", "setting": "[1]", "value": 1360, "unit": "nM"}, {"measurement": "IC50", "setting": "[2]", "value": 139, "unit": "nM"}]}, {"smiles": "[2H][C@](Nc1cc(-c2ccc(F)nc2)c2ncc(C#N)c(NCC(C)(C)C)c2c1)(c1ccc(F)cc1)c1cn(C2CC2)nn1", "note": "[Example 139, (S)-6-(((1-cyclopropyl-1H-1,2,3-triazol-4-yl)(4-fluorophenyl)methyl-d)amino)-8-(6-fluoropyridin-3-yl)-4-(neopentylamino) quinoline-3-carbonitrile]", "values": [{"measurement": "EC50", "setting": "[1]", "value": 276, "unit": "nM"}, {"measurement": "IC50", "setting": "[2]", "value": 33, "unit": "nM"}]}, {"smiles": "[2H][C@](Nc1cc(-c2ccncc2)c2ncc(C#N)c(NCC(C)(C)C)c2c1)(c1ccc(F)cc1)c1cn(C2CC2)nn1", "note": "[Example 140, (S)-6-(((1-cyclopropyl-1H-1,2,3-triazol-4-yl)(4-fluorophenyl)methyl-d)amino)-4-(neopentylamino)-8-(pyridin-4-yl)quinoline-3-carbonitrile]", "values": [{"measurement": "EC50", "setting": "[1]", "value": "> 10000", "unit": "nM"}, {"measurement": "IC50", "setting": "[2]", "value": 1500, "unit": "nM"}]}, {"smiles": "[2H][C@@](Nc1cc(Cl)c2ncc(C#N)c(NC3CCOCC3(C)C)c2c1)(c1cn(C2CC2)nn1)c1ccccc1Cl", "note": "(stereo partly drawn) [Example 141, 8-chloro-6-(((S)-(2-chlorophenyl)(1-cyclopropyl-1H-1,2,3-triazol-4-yl)methyl-d)amino)-4-((3,3-dimethyltetrahydro-2H-pyran-4-yl)amino) quinoline-3-carbonitrile]", "values": [{"measurement": "EC50", "setting": "[1]", "value": 72, "unit": "nM"}, {"measurement": "IC50", "setting": "[2]", "value": 5, "unit": "nM"}]}]}
